Laboratory results published in patent US4683240A, “Pharmaceutical composition containing an imidazolidinetrione derivative or pharmaceutically acceptable salt thereof” (Nippon Zoki Pharmaceutical Co., Ltd., priority 1985, dated 1987).
Like-named read-outs stand apart in the source and are kept apart here.

Assays:
Assay type in all cases: in vivo, rat (Wistar-strain)
Blood Glucose = assay: Hypoglycemic effect in glucose-loaded fasted rats (blood glucose); details: 100 mg/kg oral, 2 h; for inhibition in vivo at 100 mg/kg: Rattus norvegicus, vs control, read-out: Blood Glucose Decrease
Protocol: Groups of 7 Wistar-strain male rats (weighing about 200 g) which were fasted for 18 hours were used for measurement of hypoglycemic effect according to the modified method by Dulin et al. [Dulin, W. L. et al., Proc. Soc. Expl. Med., 107, 245 (1961)]. That is, 0.5 ml/100 g of 20% aqueous solution of glucose was subcutaneously administered to the backs of rats to prevent a decrease in blood glucose level because of the fasting. Immediately thereafter the test drug suspended in 0.5% aqueous C.M.C. solution was orally given, and 2 hours later, the animals underwent laparotomy under pentobarbital anesthesia, then blood was drawn from the vena cava. The obtained blood sample was allowed to stand for 30 minutes to complete the coagulation and was centrifuged to obtain the serum. Blood sugar level was measured according to the mutalotase GOD method [Trinder, Ann. Clin. Biochem., 6, 24 […]]. Asterisks indicate significant differences (*: p<0.05, **: p<0.01, ***: p<0.001) from the control.

Serum Phospholipid = assay: Hypolipidemic effect: serum phospholipid; details: 100 mg/kg oral, 2 h; for Serum Phospholipid Level: control 79 ± 2 (compounds 2-12), 72 ± 2 (compounds 15-29); for inhibition in vivo at 100 mg/kg: Rattus norvegicus, vs control, read-out: Serum Phospholipid Decrease
Protocol: (§1) The test drugs suspended in 0.5% aqueous C.M.C. solution were orally administered to groups of 8 Wistar-strain male rats (weighing about 185 g) which were fasted for 18 to 20 hours. 2 hours later, the serum was obtained in the same manner described in (2). Serum triglyceride was measured according to the GPO-p-chlorophenol colorimetric determination [Richard W. Spayd et al., Clinical Chemistry, 24, 1343 (1978)], serum free fatty acid was measured according to the Acyl CoA Synthetase-Acyl CoA Oxidase method [Shimizu S. et al., Biochem. Biophys. Res. Commun., 91, 108 (1979)], free fatty acid was measured according to the enzymatic method [Charles C. Allain et al., Clin. Chem., 20, No. 4, 470 (1974)] and total cholesterol was measured according to the enzymatic method [Takayama M. et al., Clinica Chimica Acta, 79, 93 (1977)]. Asterisks indicate significant differences (*: p<0.05, **: p<00.01, ***: p<0.001) from the control.

Total Serum Cholesterol = assay: Hypolipidemic effect: total serum cholesterol; details: 100 mg/kg oral, 2 h; for Total Serum Cholesterol Level: control 44 ± 2 (compounds 4-12), 41 ± 1 (compounds 15-29); for inhibition in vivo at 100 mg/kg: Rattus norvegicus, vs control, read-out: Total Serum Cholesterol Decrease
Protocol: as §1

Serum Triglyceride = assay: Hypolipidemic effect: serum triglyceride; details: 100 mg/kg oral, 2 h; for Serum Triglyceride Level: control 65 ± 5 (compounds 2-12), 57 ± 4 (compounds 15-29); for inhibition in vivo at 100 mg/kg: Rattus norvegicus, vs control, read-out: Serum Triglyceride Decrease
Protocol: as §1

Serum Free Fatty Acid = assay: Hypolipidemic effect: serum free fatty acid; details: 100 mg/kg oral, 2 h; for Serum Free Fatty Acid Level: control 0.53 ± 0.03 (compounds 2-12), 0.52 ± 0.03 (compounds 15-24); for inhibition in vivo at 100 mg/kg: Rattus norvegicus, vs control, read-out: Serum Free Fatty Acid Decrease
Protocol: as §1

SMILES | inhibition in vivo at 100 mg/kg (Blood Glucose; Table 2) [%] | Blood Glucose Level (Blood Glucose; Table 2, control 133 ± 6) [mg/dL] | inhibition in vivo at 100 mg/kg (Blood Glucose; Table 3) [%] | Blood Glucose Level (Blood Glucose; Table 3, control 133 ± 4) [mg/dL] | Serum Phospholipid Level (Serum Phospholipid) [mg/dL] | inhibition in vivo at 100 mg/kg (Serum Phospholipid) [%] | Total Serum Cholesterol Level (Total Serum Cholesterol) [mg/dL] | inhibition in vivo at 100 mg/kg (Total Serum Cholesterol) [%] | Serum Triglyceride Level (Serum Triglyceride) [mg/dL] | inhibition in vivo at 100 mg/kg (Serum Triglyceride) [%] | Serum Free Fatty Acid Level (Serum Free Fatty Acid) [mEq/l] | inhibition in vivo at 100 mg/kg (Serum Free Fatty Acid) [%]
CCN1C(=O)C(=O)N(C2CCCC2)C1=O [compound 13, 1-cyclopentyl-3-ethylimidazolidinetrione] | 14.7 | 116 ± 5 | – | – | – | – | – | – | – | – | – | –
O=C1NC(=O)N(Cc2ccccc2F)C1=O [compound 16, 1-(2-fluorobenzyl)imidazolidinetrione] | – | – | 11.3 | 118 ± 4 | 54 ± 1 | 25 | 33 ± 2 | 19.5 | 30 ± 1 | 47.4 | – | –
O=C1NC(=O)N(Cc2cccc(F)c2)C1=O [compound 17, 1-(3-fluorobenzyl)imidazolidinetrione] | – | – | 13.5 | 115 ± 2 | 58 ± 1 | 19.4 | 37 ± 1 | 9.8 | 30 ± 1 | 47.4 | – | –
O=C1NC(=O)N(Cc2ccc(F)cc2)C1=O [compound 18, 1-(4-fluorobenzyl)imidazolidinetrione] | – | – | 20.3 | 106 ± 3 | 56 ± 1 | 22.2 | 34 ± 1 | 17.1 | 30 ± 1 | 47.4 | 0.42 ± 0.02 | 19.2
O=C1NC(=O)N(Cc2ccc(Br)cc2)C1=O [compound 21, 1-(4-bromobenzyl)imidazolidinetrione] | – | – | – | – | 57 ± 1 | 20.8 | 36 ± 1 | 12.2 | 35 ± 2 | 38.6 | 0.44 ± 0.02 | 15.2
O=C1NC(=O)N(Cc2ccc([N+](=O)[O-])cc2)C1=O [compound 23, 1-(4-nitrobenzyl)imidazolidinetrione] | – | – | 12 | 117 ± 3 | 65 ± 2 | 9.7 | – | – | 38 ± 2 | 33.3 | – | –
Cc1ccccc1CN1C(=O)NC(=O)C1=O [compound 24, 1-(2-methylbenzyl)imidazolidinetrione] | – | – | 12.8 | 116 ± 3 | 56 ± 1 | 22.2 | 36 ± 1 | 12.2 | 30 ± 1 | 47.4 | 0.45 ± 0.01 | 13.5
Cc1cccc(CN2C(=O)NC(=O)C2=O)c1 [compound 25, 1-(3-methylbenzyl)imidazolidinetrione] | – | – | 13.5 | 115 ± 3 | 57 ± 2 | 20.8 | 36 ± 1 | 12.2 | 33 ± 2 | 42.1 | – | –
Cc1ccc(CN2C(=O)NC(=O)C2=O)cc1 [compound 26, 1-(4-methylbenzyl)imidazolidinetrione] | – | – | 9.8 | 120 ± 2 | 58 ± 1 | 19.4 | 37 ± 1 | 9.8 | 37 ± 1 | 35.1 | – | –
COc1ccc(CN2C(=O)NC(=O)C2=O)cc1 [compound 29, 1-(4-methoxybenzyl)imidazolidinetrione] | – | – | 9.8 | 120 ± 2 | 58 ± 1 | 19.4 | 36 ± 1 | 12.2 | 43 ± 3 | 24.6 | – | –
